Assay [1] concerns the target T1, 5-HT1Dβ receptor (Homo sapiens, UniProt P28222).
T1 construct: expressed in transfected cells
The experiment in a line: biochemical. In kind it is binding. The conditions noted are these: for 5-HT1Dβ/5HT1A: selectivity ratio, 5-HT1A binding with 3H-8-OH-DPAT, 5-HT1Dβ with 3H-5HT; for Ki: 3H-5HT, membranes of recombinant cells, 15 minute incubation at 37°C.
Description: Increasing levels of the test compound were incubated with the radioligand and the membrane homogenates prepared from the recombinant cells. After a 15 minute incubation at 37°C, the incubation was terminated by vacuum filtration. The filters were washed with buffer and the filters were counted for radioactivity using liquid scintillation spectrometry.

Assay [2] has as its target T1, 5-HT1Dβ receptor. Put plainly: Inhibition of forskolin-stimulated adenylate cyclase (cAMP radioimmunoassay) in 5-HT1Dβ-presenting CHO cells. In kind it is cell-based.
Description: CAMP levels were determined using a radioimmunoassay kit containing antibody specific for cAMP and radioiodinated cAMP. The amount of the compound that inhibited 50% of the forskolin-stimulated adenylate cyclase activity was determined from the inhibition curve data subjected to computer assisted analysis (Figure 1).

Where a name gives a salt, the structure may show the parent alone.

T1 sequence (P28222 whole entry): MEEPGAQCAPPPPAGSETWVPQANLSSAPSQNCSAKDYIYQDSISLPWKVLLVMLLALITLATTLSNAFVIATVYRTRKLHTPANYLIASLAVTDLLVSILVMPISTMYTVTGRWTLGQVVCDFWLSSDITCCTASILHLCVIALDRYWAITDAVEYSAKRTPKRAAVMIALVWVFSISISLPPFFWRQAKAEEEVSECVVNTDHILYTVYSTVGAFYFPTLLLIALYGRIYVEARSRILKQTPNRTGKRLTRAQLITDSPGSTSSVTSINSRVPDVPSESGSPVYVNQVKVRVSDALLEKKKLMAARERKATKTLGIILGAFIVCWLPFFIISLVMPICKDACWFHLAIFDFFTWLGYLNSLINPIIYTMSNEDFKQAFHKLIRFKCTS

As to `CCCCCCCCCOc1ccc2[nH]cc(CCN)c2c1` [Example 4, 3-(2-aminoethyl)-5-nonyloxyindole oxalate], the 5-HT1Dβ/5HT1A in assay [1] is 260.
Regarding `Cl.NCCc1c[nH]c2ccc(OCCCCCCCCO)cc12` [Example 5, 3-(2-aminoethyl)-5-(8-hydroxyoctyloxy)-indole hydrochloride], in assay [1], the inhibition constant (Ki) is 0.3 nM and the 5-HT1Dβ/5HT1A worked out at 119. Further, a half-maximal response in assay [2] (EC50) required 200 nM. In assay [2] (CHO, read-out: % Inhib. cAMP), the inhibition at 0.001 µM was determined as 0%, the inhibition at 0.01 µM turned out to be 11%, the inhibition at 0.1 µM came to 33% and the inhibition at 1 µM turned out to be 92%.
On to `CCOCCCCCCOc1ccc2[nH]cc(CCN)c2c1` [Example 8, 3-(2-aminoethyl)-5-(6-ethyloxyhexyloxy)-indole hydrochloride], for which, in assay [1], the inhibition constant Ki was found to be 0.4 nM and the 5-HT1Dβ/5HT1A is given as 180.
For `CCCCOCCCCOc1ccc2[nH]cc(CCN)c2c1` [Example 9, 3-(2-aminoethyl)-5-(4-butyloxybutyloxy)-indole hydrochoride], in assay [1], the Ki came out at 2.5 nM and the 5-HT1Dβ/5HT1A is 30.

The values are drawn from patent publication EP0666847B1 (priority 1993, dated 1995).
